Data reported in patent publication US20110112308A1 (NOVARTIS AG, priority 2006, published 2011).
Counter-ions that a name gives are not always drawn.

Experiments:
[1] = Solid samples held at 93% r.h. (XRPD, TGA); assay type: physicochemical; settings: for Solid State (EQ 93% r.h.) Crystallinity by XRPD: either 7 or 10 days
Description: An approximate solubility of the below-listed salts was determined in water and at pH 1 by suspending 5-15 mg of the salt in 1 mL of solvent. The samples were allowed to equilibrate at ambient temperature for at least 20 hours. The supernatant was filtered and used for the solubility determination, which was done gravimetrically, for the aqueous solubility, and by UV-VIS spectroscopy for pH 1. The solid residue was analyzed by XRPD. […] They were subsequently analyzed by XRPD and TGA, if the latter deemed necessary. Only irreversible or slowly reversible events can be detected.

[2] = Solid-state stability; assay type: physicochemical; settings: for Bulk stability (XRPD): 1 week
Description: (§1) All samples were prepared/diluted to a concentration of 0.2 mg/mL in methanol prior to analysis by HPLC. A freshly prepared sample of each salt was used as the reference standard for external standard calibration analysis.

[3] = Stability of mixtures with excipients; assay type: physicochemical
Description: as §1

[4] = Intrinsic dissolution rate, rotation disk method; assay type: physicochemical
Description: Intrinsic Dissolution: […] […] Pellets of the other salts remained intact for at least several minutes enabling the determination of the intrinsic dissolution rate. Dissolution rate studies were performed using the rotation disk method ([…] Instrument). A single rotation speed of 200 r.p.m. was used to dissolve drug substance into a 500 mL vessel at 37° C. The solution was continuously pumped through a UV cell measurement and returned to the dissolution vessel.

[5] = Solution stability (HPLC); assay type: physicochemical
Description: as §1

[6] = Equilibration in solvents and buffers: form conversion
[7] = Solubility, 24-hour equilibration at room temperature; assay type: physicochemical
Description: Aqueous Solubility: A carefully weighted amount (20-50 mg) of sample is dissolved in 1 ml of solvent with 24-hour equilibration at room temperature. The solubility was determined either gravimetrically or by UV-VIS spectrometry. The pH of the clear solution was also measured. However, the difficulty of determining salt solubilities in water should be stressed, since upon dissolution dissociation to the free form is possible, which affects both the solubility and the pH. It's not unlikely that attempts to make solutions of a salt at a concentration well below the reported solubility of the salt to be unsuccessful (for a full discussion see: M. Pudipeddi, A. T. M. Serajuddin, D. J. W. Grant, and P. H. Stahl in “Handbook of Pharmaceutical Salts Properties Selection and Use” page 27 and references therein).

[8] = Bulk stability, 2 weeks, 50° C.
[9] = Bulk stability, 2 weeks, 50° C./20% water
[10] = Bulk stability, 2 weeks, 50° C./75% r.h.
[11] = Light study, 1200 kLux (300-800 nm)
[12] = Mixture 1: 50% PVP + 50% Crospovidone, 50° C./75% r.h., 2 weeks
[13] = Mixture 2: 50% Starch 1500 + 5% MCC 102, 50° C./75% r.h., 2 weeks
[14] = Mixture 3: 5% PVP + 5% Crospovidone + 10% Starch 1500 + 80% MCC 102, 50° C./75% r.h., 2 weeks
[15] = Mixture 4: 99% Lactose + 1% BHT/BHA, 50° C./75% r.h., 2 weeks
[16] = Mixture 5: 99% Mannitol + 1% BHT/BHA, 50° C./75% r.h., 2 weeks
[17] = Mixture 6: 50% Mannitol + 47% HPCLH21 + 1% BHT/BHA + 2% Magnesium Stearate, 50° C./75% r.h., 2 weeks
[18] = Mixture 7: 50% Cetyl Alcohol + 49% HPCLH21 + 1% Magnesium Stearate, 50° C./75% r.h., 2 weeks
[19] = Mixture 8: 100% PEG 3350, 50° C./75% r.h., 2 weeks
[20] = 2 mg/mL in methanol, 1 week at 50° C.
[21] = 2 mg/mL in water, 1 week at 50° C.
[22] = 2 mg/mL, 100 mM lactate buffer pH 3.5, 1 week at 50° C.
[23] = 2% in 0.5% HPMC 4000, 1 day at RT
[24] = 2% in 0.5% Klucel HF, 1 day at RT
[25] = 2% in 0.8% Tween 80, 1 day at RT
[26] = 5% solution, 1 day at RT (diluted 1:100 in pH 6.8 buffer)

## Cc1[nH]c2ccccc2c1CCNCc1ccc(/C=C/C(=O)NO)cc1.Cc1[nH]c2ccccc2c1CCNCc1ccc(/C=C/C(=O)NO)cc1.O=C(O)CC(=O)O [Malonate, 2:1 malonate (hemi-malonate) salt of N-hydroxy-3-[4-[[[2-(2-methyl-1H-indol-3-yl)ethyl]amino]methyl]phenyl]-2E-2-propenamide]
[1]; 10 days
  Solid State (EQ 93% r.h.) Form by XRPD: No change

## Cc1[nH]c2ccccc2c1CCNCc1ccc(/C=C/C(=O)NO)cc1.O=P(O)(O)O [Phosphate, 1:1 phosphate salt of N-hydroxy-3-[4-[[[2-(2-methyl-1H-indol-3-yl)ethyl]amino]methyl]phenyl]-2E-2-propenamide]
[1]; 7 days
  Solid State (EQ 93% r.h.) Form by XRPD: No change

## CC(O)C(=O)O.Cc1[nH]c2ccccc2c1CCNCc1ccc(/C=C/C(=O)NO)cc1.O (racemic) [Monohydrate DL-lactate salt, 1:1 monohydrate DL-lactate salt of N-hydroxy-3-[4-[[[2-(2-methyl-1H-indol-3-yl)ethyl]amino]methyl]phenyl]-2E-2-propenamide]
[2]; 80° C.
  Bulk stability (XRPD): no change
[2]; 80° C./75% r.h.
  Bulk stability (XRPD): no change
[2]; [8]
  % DP (total degradation products): 0.43 % area
  assay: [99.31]
[2]; [9]
  % DP (total degradation products): 0.51 % area
  assay: [100.3]
[2]; [10]
  % DP (total degradation products): 0.43 % area
  assay: [99.86]
[2]; [11]
  % DP (total degradation products): 1.68 % area
  CL (appearance): C (C = medium discoloration)
  assay: [98.65]
[3]; [12]
  % DP (total degradation products): 0.6 % area
  % DS (drug substance): 99.4 % area
[3]; [13]
  % DP (total degradation products): 0.4 % area
  % DS (drug substance): 99.6 % area
[3]; [14]
  % DP (total degradation products): 0.5 % area
  % DS (drug substance): 99.5 % area
[3]; [15]
  % DP (total degradation products): 0.5 % area
  % DS (drug substance): 99.5 % area
[3]; [16]
  % DP (total degradation products): 0.5 % area
  % DS (drug substance): 99.5 % area
[3]; [17]
  % DP (total degradation products): 0.6 % area
  % DS (drug substance): 99.3 % area
[3]; [18]
  % DP (total degradation products): 0.5 % area
  % DS (drug substance): 99.5 % area
[3]; [19]
  % DP (total degradation products): 0.6 % area
  % DS (drug substance): 99.4 % area
[3]; Standard, freshly prepared
  % DP (total degradation products): 0.4 % area
  % DS (drug substance): 99.6 % area
[4]; 0.1N HCl (Table 19)
  Intrinsic Dissolution Rate: 0.02
[4]; Water (Table 19)
  Intrinsic Dissolution Rate: 0.06
[4]; pH = 4 (Table 19)
  Intrinsic Dissolution Rate: 0.08
[5]; 2 mg/mL in 100 mM lactate buffer, pH 3.5
  pH of initial mixture: 3.57
[5]; [20]
  % DP (total degradation products): 0.71 % area
  assay: [102.8]
[5]; 2 mg/mL in water
  pH of initial mixture: 6.30
[5]; [21]
  % DP (total degradation products): 1.22 % area
  CL (appearance): A↓
  assay: [98.85]
[5]; [22]
  % DP (total degradation products): 1.31 % area
  CL (appearance): A↓*
[5]; 2 mg/mL, 100 mM lactate buffer pH 3.5, 1 week at 50° C., external standard
  assay: [99.12]
[5]; 2% in 0.5% CMC, 1 day at RT
  % DP (total degradation products): 0.49 % area
  CL (appearance): A↓↓
  assay: [77.50]
[5]; [23]
  % DP (total degradation products): 0.41 % area
  assay: [96.42]
[5]; [24]
  % DP (total degradation products): 0.43 % area
  assay: [96.99]
[5]; [25]
  % DP (total degradation products): 0.42 % area
  assay: [95.06]
[5]; [26]
  % DP (total degradation products): 0.52 % area
  CL (appearance): A↓
  assay: [99.24]
[5]; unstressed baseline of the stability study
  Unstressed (% Area): 99.51% Area

## CC(O)C(=O)O.Cc1[nH]c2ccccc2c1CCNCc1ccc(/C=C/C(=O)NO)cc1 [Anhydrous DL-lactate salt, 1:1 anhydrous DL-lactate salt of N-hydroxy-3-[4-[[[2-(2-methyl-1H-indol-3-yl)ethyl]amino]methyl]phenyl]-2E-2-propenamide]
[4]; 0.1N HCl (Table 19)
  Intrinsic Dissolution Rate: 0.13
[4]; Water (Table 19)
  Intrinsic Dissolution Rate: 0.14
[4]; pH = 4 (Table 19)
  Intrinsic Dissolution Rate: 0.09

## 1:1 propionate salt of N-hydroxy-3-[4-[[[2-(2-methyl-1H-indol-3-yl)ethyl]amino]methyl]phenyl]-2E-2-propenamide
[1]
  Solid State (EQ 93% r.h.) Crystallinity by XRPD: Poor

## Cc1[nH]c2ccccc2c1CCNCc1ccc(/C=C/C(=O)NO)cc1.Cc1[nH]c2ccccc2c1CCNCc1ccc(/C=C/C(=O)NO)cc1.O=C(O)/C=C/C(=O)O [Fumarate, 2:1 fumarate salt (hemi-fumarate) of N-hydroxy-3-[4-[[[2-(2-methyl-1H-indol-3-yl)ethyl]amino]methyl]phenyl]-2E-2-propenamide]
[1]; 10 days
  Solid State (EQ 93% r.h.) Form by XRPD: No change

## Cc1[nH]c2ccccc2c1CCNCc1ccc(/C=C/C(=O)NO)cc1 [Form A of the mesylate salt]
[6]; 0.1 N HCl
  conversion upon equilibration: to the hydrochloride salt
[6]; phosphate buffer (pH=6.8)
  conversion upon equilibration: to the free base
[6]; water / aqueous solutions
  conversion upon equilibration: converts to form B

## CC(O)C(=O)O.Cc1[nH]c2ccccc2c1CCNCc1ccc(/C=C/C(=O)NO)cc1 [DL-lactate salt, lactate salt of N-hydroxy-3-[4-[[[2-(2-methyl-1H-indol-3-yl)ethyl]amino]methyl]phenyl]-2E-2-propenamide]
[3]; after 2 weeks at 50° C./75% r.h.
  stability with all excipient mixtures tested, in words: very good stability
[4]
  intrinsic dissolution (rate), in words: good
[5]; both in solution and in the solid state
  stability characteristics, in words: very good stability
[7]
  aqueous solubility, in words: excellent

## Cc1[nH]c2ccccc2c1CCNCc1ccc(/C=C/C(=O)NO)cc1.Cc1[nH]c2ccccc2c1CCNCc1ccc(/C=C/C(=O)NO)cc1.O=C(O)CCC(=O)O [Succinate, 2:1 succinate (hemi-succinate) salt of N-hydroxy-3-[4-[[[2-(2-methyl-1H-indol-3-yl)ethyl]amino]methyl]phenyl]-2E-2-propenamide]
[1]; 10 days
  Solid State (EQ 93% r.h.) Form by XRPD: No change

## Cc1[nH]c2ccccc2c1CCNCc1ccc(/C=C/C(=O)NO)cc1.O=C(O)c1ccccc1 [Benzoate, 1:1 benzoate salt of N-hydroxy-3-[4-[[[2-(2-methyl-1H-indol-3-yl)ethyl]amino]methyl]phenyl]-2E-2-propenamide]
[1]; 7 days
  Solid State (EQ 93% r.h.) Form by XRPD: No change

## Cc1[nH]c2ccccc2c1CCNCc1ccc(/C=C/C(=O)NO)cc1.O=C(O)c1cc(O)ccc1O [Gentisate, 1:1 gentisate salt of N-hydroxy-3-[4-[[[2-(2-methyl-1H-indol-3-yl)ethyl]amino]methyl]phenyl]-2E-2-propenamide]
[1]; 10 days
  Solid State (EQ 93% r.h.) Form by XRPD: No change

## CC(=O)O.Cc1[nH]c2ccccc2c1CCNCc1ccc(/C=C/C(=O)NO)cc1 [Acetate, 1:1 acetate salt of N-hydroxy-3-[4-[[[2-(2-methyl-1H-indol-3-yl)ethyl]amino]methyl]phenyl]-2E-2-propenamide]
[1]
  Solid State (EQ 93% r.h.) Crystallinity by XRPD: Good
[1]; either 7 or 10 days (time not given)
  Solid State (EQ 93% r.h.) Form by XRPD: converted to a new form
[1]; after 93% r.h. storage, (105° C.)
  Solid State (EQ 93% r.h.) LOD by TGA: LOD = 8.8%
